From patent US20240190891A1, “PYRIDO OXAZINE AMINO DERIVATIVES AS ALK5 INHIBITORS” (CHIESI FARMACEUTICI S.P.A., priority 2020, published 2024)

Molecular target: T1, human ALK5 (Homo sapiens, UniProt P36897)
T1 construct: human ALK5 (recombinant TGF β1 N-term GST-tagged, 80-end); GST (N); purchased
T1 sequence (P36897 80-503 limits assumed): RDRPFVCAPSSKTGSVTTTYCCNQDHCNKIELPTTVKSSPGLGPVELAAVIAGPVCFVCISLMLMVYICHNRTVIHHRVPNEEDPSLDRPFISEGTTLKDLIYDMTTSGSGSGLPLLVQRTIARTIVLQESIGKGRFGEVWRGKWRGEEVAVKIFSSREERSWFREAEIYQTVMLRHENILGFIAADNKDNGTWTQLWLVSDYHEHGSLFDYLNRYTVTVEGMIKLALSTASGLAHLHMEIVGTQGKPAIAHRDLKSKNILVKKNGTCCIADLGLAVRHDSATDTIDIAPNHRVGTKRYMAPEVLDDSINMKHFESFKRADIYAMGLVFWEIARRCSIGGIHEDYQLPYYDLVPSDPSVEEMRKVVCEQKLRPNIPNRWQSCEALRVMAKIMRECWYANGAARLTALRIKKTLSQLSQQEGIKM
Assay: ADP-GLO Kinases assay, inhibitory activity on ALK5
Assay type: biochemical
Conditions: Table 10; purified recombinant human ALK5 2.6 nM, ADP-Glo, 25° C., 150 min incubation
Experimental: The enzymatic activity of compounds of the present invention was monitored measuring the formation of ADP using the ADP-GLO Kinases assay. Following the incubation of the purified enzyme, a substrate and ATP, the produced ADP was converted into ATP, which in turn was converted into light by Ultra-Glo Luciferase. The luminescent signal positively correlated with ADP amount and kinase activity. Briefly, the kinase reaction was performed by incubating 2.6 nM of the purified, commercially available human ALK5 (recombinant TGF β1 N-term GST-tagged, 80-end), a final concentration of TGFβ1 peptide 94.5 μM (Promega, T36-58) and ultra-pure ATP (Promega V915B). The ATP concentration was set at the Km value (concentration of substrate which permits the enzyme to achieve half maximal velocity (Vmax)) of ALK5 (5 μM). All reactions/incubations were performed at 25° C. Compound and ALK5 kinase were mixed and incubated for 15 mins. Reactions were initiated by addition of ATP at a final concentration in the assay of 0.83 μM. After an incubation of 150 min, the reaction was stopped, and ADP production detected with ADP-Glo kit according to manufacturer's indications. The assay was performed in 384-well format and was validated using a selection of reference compounds that was tested in 11 point concentration-response curve.
Compounds of the examples C1, C2 and C3 were tested in the same in vitro assay described above.

Row | SMILES | IC50 [nM]
1 | CC(=O)N1CCN(CCNC(=O)c2cnccc2Nc2cc(-c3cc(Cl)ccc3F)nc3c2OCCN3)CC1 [Example 47, N-[2-(4-acetylpiperazin-1-yl)ethyl]-4-{[6-(5-chloro-2-fluorophenyl)-2H,3H,4H-pyrido[3,2-b][1,4]oxazin-8-yl]amino}pyridine-3-carboxamide] | 1 to 5
2 | CN(C)CCNC(=O)c1cc2c(Nc3cc(-c4cc(Cl)ccc4F)nc4c3OCCN4)ccnc2[nH]1 [Example 49, 4-{[6-(5-chloro-2-fluorophenyl)-2H,3H,4H-pyrido[3,2-b][1,4]oxazin-8-yl]amino}-N-[2-(dimethylamino)ethyl]-1H-pyrrolo[2,3-b]pyridine-2-carboxamide] | < 1
3 | O=C(NCCN1CCOCC1)c1cnccc1Nc1cc(-c2cc(Cl)ccc2F)nc2c1OCCN2 [Example 9, 4-{[6-(5-chloro-2-fluorophenyl)-2H,3H,4H-pyrido[3,2-b][1,4]oxazin-8-yl]amino}-N-[2-(morpholin-4-yl)ethyl]pyridine-3-carboxamide] | 1 to 5
4 | COC(=O)c1cnccc1Nc1cc(-c2cccc(C)n2)nc2c1OCCN2 [Example 30, methyl 4-{[6-(6-methylpyridin-2-yl)-2H,3H,4H-pyrido[3,2-b][1,4]oxazin-8-yl]amino}pyridine-3-carboxylate] | < 1
5 | Nc1cc(Nc2cc(-c3cc(Cl)ccc3F)nc3c2OCCN3)ccn1 [Example 3, N4-[6-(5-chloro-2-fluorophenyl)-2H,3H,4H-pyrido[3,2-b][1,4]oxazin-8-yl]pyridine-2,4-diamine] | 1 to 5
6 | CNC(=O)c1cnccc1Nc1cc(-c2cc(Cl)ccc2F)nc2c1OCCN2 [Example 2, 4-{[6-(5-chloro-2-fluorophenyl)-2H,3H,4H-pyrido[3,2-b][1,4]oxazin-8-yl]amino}-N-methylpyridine-3-carboxamide] | < 1
7 | CN(CCNC(=O)c1cnccc1Nc1cc(-c2cc(Cl)ccc2F)nc2c1OCCN2)C1COC1 [Example 43, 4-{[6-(5-chloro-2-fluorophenyl)-2H,3H,4H-pyrido[3,2-b][1,4]oxazin-8-yl]amino}-N-{2-[methyl(oxetan-3-yl)amino]ethyl}pyridine-3-carboxamide] | 1 to 5
8 | Clc1cccc(-c2cc(Nc3ccncc3)c3c(n2)NCCO3)n1 [Example 13, N-[6-(6-chloropyridin-2-yl)-2H,3H,4H-pyrido[3,2-b][1,4]oxazin-8-yl]pyridin-4-amine] | 1 to 5
9 | Cc1cccc(-c2cc(Nc3ccncc3)c3c(n2)NCCO3)n1 [Example 5, N-[6-(6-methylpyridin-2-yl)-2H,3H,4H-pyrido[3,2-b][1,4]oxazin-8-yl]pyridin-4-amine] | 5 to 10
10 | CN1CCN(CCC(=O)Nc2cc(Nc3cc(-c4cc(Cl)ccc4F)nc4c3OCCN4)ccn2)CC1 [Example 33, N-(4-{[6-(5-chloro-2-fluorophenyl)-2H,3H,4H-pyrido[3,2-b][1,4]oxazin-8-yl]amino}pyridin-2-yl)-3-(4-methylpiperazin-1-yl)propanamide] | < 1
11 | Fc1ccccc1-c1cc(Nc2ccncc2)c2c(n1)NCCO2 [Example 11, N-[6-(2-fluorophenyl)-2H,3H,4H-pyrido[3,2-b][1,4]oxazin-8-yl]pyridin-4-amine] | 1 to 5
12 | CS(=O)(=O)N1CCN(CCNC(=O)c2cnccc2Nc2cc(-c3cc(Cl)ccc3F)nc3c2OCCN3)CC1 [Example 46, 4-{[6-(5-chloro-2-fluorophenyl)-2H,3H,4H-pyrido[3,2-b][1,4]oxazin-8-yl]amino}-N-[2-(4-methanesulfonylpiperazin-1-yl)ethyl]pyridine-3-carboxamide] | 1 to 5
13 | O=C(CCN1CCOCC1)Nc1cc(Nc2cc(-c3cc(Cl)ccc3F)nc3c2OCCN3)ccn1 [Example 20, N-(4-{[6-(5-chloro-2-fluorophenyl)-2H,3H,4H-pyrido[3,2-b][1,4]oxazin-8-yl]amino}pyridin-2-yl)-3-(morpholin-4-yl)propanamide] | < 1
14 | CN(C)CCNC(=O)c1cnccc1Nc1cc(-c2cc(Cl)ccc2F)nc2c1OCCN2 [Example 10, 4-{[6-(5-chloro-2-fluorophenyl)-2H,3H,4H-pyrido[3,2-b][1,4]oxazin-8-yl]amino}-N-[2-(dimethylamino)ethyl]pyridine-3-carboxamide] | < 1
15 | Cc1cccc(-c2cc(Nc3ccncc3)c3c(n2)NCCO3)c1 [Example 18, N-[6-(3-methylphenyl)-2H,3H,4H-pyrido[3,2-b][1,4]oxazin-8-yl]pyridin-4-amine] | 1 to 5
16 | CN1CCN(CCOC(=O)c2cnccc2Nc2cc(-c3cc(Cl)ccc3F)nc3c2OCCN3)CC1 [Example 29, 2-(4-methylpiperazin-1-yl)ethyl 4-{[6-(5-chloro-2-fluorophenyl)-2H,3H,4H-pyrido[3,2-b][1,4]oxazin-8-yl]amino}pyridine-3-carboxylate] | < 1
17 | Cc1cccc(-c2cc(Nc3ccnc4[nH]cnc34)c3c(n2)NCCO3)n1 [Example 40, N-{3H-imidazo[4,5-b]pyridin-7-yl}-6-(6-methylpyridin-2-yl)-2H,3H,4H-pyrido[3,2-b][1,4]oxazin-8-amine] | < 1
18 | Fc1ccc(Cl)cc1-c1cc(Nc2ccncc2)c2c(n1)NCCO2 [Example 1, N-[6-(5-chloro-2-fluorophenyl)-2H,3H,4H-pyrido[3,2-b][1,4]oxazin-8-yl]-pyridine-4-amine] | < 1
19 | Fc1ccc(Cl)cc1-c1cc(Nc2ccnc3[nH]ncc23)c2c(n1)NCCO2 [Example 25, 6-(5-chloro-2-fluorophenyl)-N-{1H-pyrazolo[3,4-b]pyridin-4-yl}-2H,3H,4H-pyrido[3,2-b][1,4]oxazin-8-amine] | < 1
20 | Fc1ccc(-c2cc(Nc3ccncc3)c3c(n2)NCCO3)nc1 [Example 26, N-[6-(5-fluoropyridin-2-yl)-2H,3H,4H-pyrido[3,2-b][1,4]oxazin-8-yl]pyridin-4-amine] | 5 to 10
21 | COC(=O)c1c[nH]c2nccc(Nc3cc(-c4cc(Cl)ccc4F)nc4c3OCCN4)c12 [Example 36, methyl 4-{[6-(5-chloro-2-fluorophenyl)-2H,3H,4H-pyrido[3,2-b][1,4]oxazin-8-yl]amino}-1H-pyrrolo[2,3-b]pyridine-3-carboxylate] | < 1
22 | Clc1cccc(-c2cc(Nc3ccncc3)c3c(n2)NCCO3)c1 [Example 15, N-[6-(3-chlorophenyl)-2H,3H,4H-pyrido[3,2-b][1,4]oxazin-8-yl]pyridin-4-amine] | 1 to 5
23 | Fc1ccc(Cl)cc1-c1cc(Nc2ccnc3[nH]cnc23)c2c(n1)NCCO2 [Example 35, 6-(5-chloro-2-fluorophenyl)-N-{3H-imidazo[4,5-b]pyridin-7-yl}-2H,3H,4H-pyrido[3,2-b][1,4]oxazin-8-amine] | < 1
24 | CN1CCC(CCNC(=O)c2cc3c(Nc4cc(-c5cc(Cl)ccc5F)nc5c4OCCN5)ccnc3[nH]2)CC1 [Example 48, 4-{[6-(5-chloro-2-fluorophenyl)-2H,3H,4H-pyrido[3,2-b][1,4]oxazin-8-yl]amino}-N-[2-(1-methylpiperidin-4-yl)ethyl]-1H-pyrrolo[2,3-b]pyridine-2-carboxamide] | < 1

Same assay, conditions: Table 11, comparative examples; same in vitro assay

Row | SMILES | IC50 [nM]
25 | Fc1ccc(Cl)cc1-c1cc(-c2ccncc2)c2c(n1)NCCO2 [Example C1, 4-[6-(5-chloro-2-fluorophenyl)-2H,3H,4H-pyrido[3,2-b][1,4]oxazin-8-yl]pyridine, reference compound] | 6500
